Source: EP3666765A1, “CHROMENIC PHYTOCANNABINOIDS, THEIR SYNTHESIS AND USE IN TREATMENT OR PREVENTION OF DISEASE” (Emerald Health Biotechnology España,S.L.U., priority 2018, dated 2020)

Biological target: T1, mono-acyl glycerol lipase (MAGL) (Homo sapiens, UniProt Q99685)
T1 construct: purchased Cayman Chemical
T1 sequence (Q99685 1-303): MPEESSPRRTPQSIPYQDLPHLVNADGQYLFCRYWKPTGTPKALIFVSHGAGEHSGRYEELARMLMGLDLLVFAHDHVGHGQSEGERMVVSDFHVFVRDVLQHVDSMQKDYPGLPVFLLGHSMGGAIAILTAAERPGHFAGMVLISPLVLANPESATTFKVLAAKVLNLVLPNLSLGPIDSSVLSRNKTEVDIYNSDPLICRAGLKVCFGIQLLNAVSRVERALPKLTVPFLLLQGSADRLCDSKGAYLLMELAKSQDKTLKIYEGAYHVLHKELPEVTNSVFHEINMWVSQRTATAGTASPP
Assay: In vitro inhibition of mono-acyl glycerol lipase (Monoacylglycerol Lipase Inhibitor Screening Assay Kit, Cayman Chemical; colorimetric)
Format: biochemical
Settings: human recombinant enzyme; 5 min pre-incubation at room temperature (20 °C); substrate 4-nitrophenylacetate (236 µM), 30 min; absorbance at 412 nm; read-out: IC50 against MAGL
Procedure: The ability of the compounds of the present invention to inhibit mono-acyl glycerol lipase (MAGL) was estimated using their IC50 value. MALG inhibition was measured using the Monoacylglycerol Lipase Inhibitor Screening Assay Kit (Cayman Chemical, USA). Briefly, in 96-well plate, samples and human recombinant enzyme were incubated for five minutes at room temperature (20 °C). After that, an ethanolic solution of 4-nitrophenylacetate (236 µM), as colorimetric substrate, was added to the wells and plates were incubated for 30 minutes at room temperature. Finally, absorbance was measured at 412 nm. JZL195 {(4-nitrophenyl)-4-[(3-phenoxyphenyl)methyl]piperazine-1-carboxylate, 5 µM} was used as a positive control. Background obtained was subtracted in each experimental value and the percentage of inhibition was established with the formula (Absorbance 100% Activity - Absorbance of the sample)/Absorbance 100% Activity. Table 1: MAGL inhibition (IC50) for compounds of the invention

Compound | IC50
CCCC1=CC(=O)C2=C(OC(C)(CCC=C(C)C)C=C2)C1=O (stereo not drawn) [(C), 2-methyl-2-(4-methylpent-3-enyl)-7-propyl-chromene-5,8-dione] | 6.64 µM
CCCCCC1=CC(=O)C2=C(OC(C)(C)C=C2)C1=O [(B), 2,2-dimethyl-7-pentyl-chromene-5,8-dione] | 4.5 µM
CCCCCC1=CC(=O)C2=C(OC(C)(CCC=C(C)C)C=C2)C1=O (stereo not drawn) [(A), 2-methyl-2-(4-methylpent-3-enyl)-7-pentyl-chromene-5,8-dione] | 4.44 µM
